Measured values published in PMC6017655, “In Silico and in Vitro-Guided Identification of Inhibitors of Alkylquinolone-Dependent Quorum Sensing in Pseudomonas aeruginosa” (Molecules : A Journal of Synthetic Chemistry and Natural …, 2018).
Where two headings read alike, the source gives them in different places.

Tests used:
[1] = tested on: PqsR (pqsA promoter, PAO1-L mCTX::PpqsA-lux); assay: Whole cell biosensor reporter assay, PAO1-L mCTX::PpqsA-lux; format: cell-based, Pseudomonas aeruginosa; conditions: for IC50: Mean ± SD, n = 3; for activity at 10 µM: PAO1, read-out: PAO1-L Remaining Activity %; for PqsR inhibitory activity (in words), PAO1-L: screen at 10 µM / dose-response
Method: (§1) To determine the ability of the quinolines to inhibit PqsR functionality, the P. aeruginosa biosensor strains, PAO1-L and PA14, incorporating a chromosomal mCTX::PpqsA-lux transcriptional fusion, were used. These report on the activation of the pqsA promoter, regulated by PqsR [25]. PAO1-L and PA14 were chosen because they are genetically amenable and belong to the two major P. aeruginosa genomic groups. The quinolone compounds were incubated with the corresponding strain, and luminescence and optical density readings were recorded to monitor the effect of the quinolines on PqsR activity and bacterial growth, respectively. The compounds were screened at 10 µM concentration, and the activity was compared to a control of DMSO (0.1%) (Figure 3a). To be considered a hit, a threshold of at least 50% inhibition of the test compound, relative to the negative control had to be reached, without affecting bacterial growth. […] Concentration-response experiments were then carried out to determine the IC50 values (Figure 3b,c), which are summarised in Table 1.
(§2) Strains PA14 mCTX::PpqsA-lux and PAO1-L mCTX::PpqsA-lux were constructed using plasmid mini-CTX::PpqsA-lux, as previously described, and the assay was performed according to a published protocol. For screening, the compounds were tested at a concentration of 10 µM, which was prepared from a 10 mM stock, in DMSO.

[2] = Hepatic microsomal stability, rat; format: in vitro ADME; conditions: liver microsomes, pH 7.4, 0.5 mg/mL protein, NADPH, 37 °C; for microsomal CLint at 1 µM: read-out: Microsomal Stability Rat Clint (intrinsic clearance); for half-life at 1 µM: read-out: Microsomal Stability Rat t1/2
Method: (§3) Dilutions of a 1 mM test compound DMSO stock solution were prepared in buffer (typically 0.01 M phosphate buffered saline (pH 7.4) so that the final DMSO concentration was 0.1% v/v and the final test compound concentration tested was 1 µM. Following addition of protein (0.5 mg/mL final) and NADPH, the samples were pre-incubated for 10 min prior to the start of the incubation by the addition of test compound. The test compounds were then incubated (n = 2; 1 µM final concentration) at 37 °C with tissue microsomes. Aliquots were sampled at several time points and mixed with acetonitrile (containing internal standard) to terminate the reaction and precipitate the proteins. All the samples were mixed, centrifuged and the supernatants analysed by UPLC-MS/MS. The intrinsic clearance (Clint) and half-life (t 1/2) values were determined from the slope of the parent depletion curve. Control compounds for low, moderate and high intrinsic clearance, respectively, for both human and rat microsomes, were included.

PAO1-L = assay: Bacterial growth (optical density) in reporter assay, PAO1-L; format: cell-based, Pseudomonas aeruginosa; conditions: compound vs DMSO control
Method: as §1
(§4) Figure 3 Whole bacterial cell-based P. aeruginosa compound screen for both PqsR and growth inhibition (a) Activity against PA14 (green) and PAO1-L (purple) PpqsA-lux reporter strains at 10 µM test compound; (b) and (c) Dose-response curves for active compounds against PA14 (b) and PAO1-L (c); (d) and (e) growth curves for PA14 (d) and PAO1-L (e) in the presence of compound or DMSO control.

Plasma stability, rat = format: in vitro ADME; conditions: 37 °C, up to 2 h, read-out: Plasma Stability Rat t1/2
Method: (§5) Dilutions of a 10 mM test compound DMSO stock solution were prepared so that the final DMSO concentration was 1% v/v and the final test compound concentration tested was 1 µM. Following the addition of the test compound to plasma, the samples were pre-incubated for 10 min prior to the start of the incubation by the addition of the test compound. The test compound was incubated (n = 2; 1 µM final concentration) at 37 °C with plasma for up to 2 h. Aliquots were sampled at several time points and mixed with acetonitrile (containing internal standard) to terminate the reaction and precipitate the proteins. All the samples were mixed, centrifuged and the supernatants analysed by UPLC-MSMS. Parent disappearance and half-life (t 1/2) values were determined from the slope of the parent depletion curve. Control compounds (imidapril, enalapril, tenofovir and/or propantheline), were respectively included.

[3] = tested on: PqsR (pqsA promoter, PA14 mCTX::PpqsA-lux); assay: Whole cell biosensor reporter assay, PA14 mCTX::PpqsA-lux; format: cell-based, Pseudomonas aeruginosa; conditions: for IC50: Mean ± SD, n = 3; for activity at 10 µM: PA14, read-out: PA14 Remaining Activity %; for PqsR inhibitory activity (in words), PA14: screen at 10 µM
Method: as §1, §2

Plasma stability, human = format: in vitro ADME; conditions: 37 °C; for half-life at 1 µM: human, plasma, up to 2 h, read-out: Plasma Stability Human t 1/2
Method: as §5

[4] = Hepatic microsomal stability, human; format: in vitro ADME; conditions: liver microsomes, pH 7.4, 0.5 mg/mL protein, NADPH, 37 °C; for half-life at 1 µM: read-out: Microsomal Stability Human t1/2
Method: as §3

PA14 = assay: Bacterial growth (optical density) in reporter assay, PA14; format: cell-based, Pseudomonas aeruginosa; conditions: compound vs DMSO control
Method: as §1, §4

AQ production in PAO1-L = assay: Alkylquinolone (HHQ, PQS, HQNO) production by LC-MS/MS, PAO1-L; format: cell-based, Pseudomonas aeruginosa; conditions: 3x IC50, 16 h, culture supernatant
Method: (§6) HQNO, can protect Staphylococcus aureus from vancomycin [31] and contributes to the environmental competitiveness of P. aeruginosa, through its activity as a potent inhibitor of the cytochrome bc1 complex. […] LC-MS/MS was used to quantify the major AQs HHQ, PQS and HQNO after incubation of the P. aeruginosa strains with the hit compounds, for 16 h. The assay was performed using both PAO1-L and PA14 strains which were treated with PqsR antagonists at concentrations three-fold higher than their IC50 values. The results obtained depended on the inhibitor and strain tested (Figure 5).
(§7) For each test sample, 100 µL of sterile filtered supernatant (the same preparation as for pyocyanin) was spiked with 10 µL of an internal standard solution (10 µM d4-PQS in MeOH), and diluted with water, to a total volume of 500 µL. Samples were then extracted three times with an 0.5 mL aliquot of ethyl acetate, vortex mixing the aqueous/organic mix for 2 min, then removing the organic phase once the layers had successfully partitioned. For each sample, the combined organic extracts were dried under vacuum and re-dissolved in 100 µL MeOH prior to analysis. For the LC-MS/MS analysis of supernatant extracts, the chromatography was achieved using a Shimadzu series 10AD VP LC system (Columbia, MD, USA). The LC column, maintained at 40 °C, was a Phenomenex Gemini C18 (3.0 µm, 100 × 3.0 mm) (Macclesfield, Cheshire, UK) with an appropriate guard column. Mobile phase A was 0.1% (v/v) formic acid in water containing 2 mM 2-picolinic acid, and mobile phase B 0.1% (v/v) formic acid in methanol. The flow rate throughout the chromatographic separation was 450 µL/min. After an injection of a 2 µL/sample, a binary gradient, beginning initially at 30% B, increased linearly to 99% B over 5 min. The composition remained at 99% B for 3 min, decreased to 30% B over 1 min, and stayed at this composition for 4 min, to allow for column equilibration. […] Where chromatographic peaks for HHQ, HQNO and PQS were detected, a peak area was determined, and analyte peak area/internal standard peak area calculated.

AQ production in PA14 = assay: Alkylquinolone (HHQ, PQS, HQNO) production by LC-MS/MS, PA14; format: cell-based, Pseudomonas aeruginosa; conditions: 3x IC50, 16 h, culture supernatant
Method: as §6, §7

[5] = Pseudomonas aeruginosa, PAO1, read-out: IC50 PAO1-L, PpqsA-lux reporter
[6] = read-out: IC50 PAO1-L, PpqsA-lux reporter
[7] = Pseudomonas aeruginosa, PA14, read-out: IC50 PA14, PpqsA-lux reporter

SMILES: CC(=O)N1N=C(c2ccccc2)CC1c1cccc(Nc2ccnc3cc(C(F)(F)F)ccc23)c1 (stereo not shown) [IIi]
- IC50 [1, 5]: 5 µM
- activity at 10 µM ([1]; Pseudomonas aeruginosa): 26.1 ± 0.99%
- IC50 [1, 6]: 5.14 ± 0.6 µM
- PqsR inhibitory activity (in words), PAO1-L [1]: strong PqsR inhibitory activity
- microsomal CLint at 1 µM [2]: 65.7 µL/min/mg
- half-life at 1 µM [2]: 21.1 min
- Effect on bacterial growth, PAO1-L (PAO1-L): without interfering with bacterial growth
- half-life at 1 µM (Plasma stability, rat): > 240 min
- IC50 [3, 7]: 5 µM
- activity at 10 µM ([3]; Pseudomonas aeruginosa): 16.8 ± 1.01%
- IC50 ([3]; read-out: IC50 PA14, PpqsA-lux reporter): 4.9 ± 0.3 µM
- PqsR inhibitory activity (in words), PA14 [3]: strong PqsR inhibitory activity
- Plasma stability (in words), human plasma (Plasma stability, human; 1 µM): greatest plasma stability
- half-life at 1 µM (Plasma stability, human): 157 min
- microsomal CLint at 1 µM [4]: 72.9 µL/min/mg
- half-life at 1 µM [4]: 19 min
- Effect on bacterial growth, PA14 (PA14): without interfering with bacterial growth

SMILES: O=CN1N=C(c2ccccc2)CC1c1cccc(Nc2ccnc3cc(C(F)(F)F)ccc23)c1 (stereo not shown) [Ii]
- Inhibition of AQ production (in words), PAO1-L (AQ production in PAO1-L): greatest inhibition
- Inhibition of AQ production (in words), PA14 (AQ production in PA14): not observed
- IC50 [1, 5]: 5 µM
- activity at 10 µM ([1]; Pseudomonas aeruginosa): 15.6 ± 2.53%
- IC50 [1, 6]: 5.1 ± 0.32 µM
- PqsR inhibitory activity (in words), PAO1-L [1]: strong PqsR inhibitory activity
- microsomal CLint at 1 µM [2]: 54.1 µL/min/mg
- half-life at 1 µM [2]: 25.7 min
- Effect on bacterial growth, PAO1-L (PAO1-L): without interfering with bacterial growth
- half-life at 1 µM (Plasma stability, rat): > 240 min
- IC50 [3, 7]: 5 ± 0.82 µM
- activity at 10 µM ([3]; Pseudomonas aeruginosa): 16.6 ± 1.3%
- PqsR inhibitory activity (in words), PA14 [3]: strong PqsR inhibitory activity
- half-life at 1 µM (Plasma stability, human): 69.1 min
- microsomal CLint at 1 µM [4]: 80.7 µL/min/mg
- half-life at 1 µM [4]: 17.2 min
- Effect on bacterial growth, PA14 (PA14): without interfering with bacterial growth
